# US12643887B2, “Heterocyclic derivatives with cardiomyocyte proliferation activity for treatment of heart diseases” (Tongji University, priority 2019, dated 2026)
# Assays:
# [1] = system: Neonatal Rat Ventricular Myocytes (NRVMs); experiment: Myocyte proliferation assay (EdU assay) in neonatal rat ventricular myocytes; format: cell-based; details: growth relative to blank myocyte growth without compound added; for Avg 1 uM (average myocyte proliferation): compound 1 uM; for Avg 3 uM (average myocyte proliferation): compound 3 uM; for Avg 10 uM (average myocyte proliferation): compound 10 uM
# Description: 1. Isolation of and Culture Neonatal Rat Ventricular Myocytes (NRVMs)
# Ventricles from neonatal rats were separated from the atria, cut into small pieces (about 2×2 mm^2) and then dissociated in Ca2+-free HBSS containing 0.125 mg ml-1 trypsin (Gibco), 10 μg ml-1 DNase II (Sigma) and 0.1 mg ml-1 collagenase type IV (Sigma). The digestion was carried out under constant stirring at 37° C. for 5 min. The supernatant was collected with FBS (Gibco) after each digestion period. After digestion, the collected supernatant was centrifuged at 1000 g for 10 min at room temperature, and then cell pellets were resuspended in DMEM (Gibco) supplemented with 10% FBS and with 100 uM 5-bromo-2′-deoxyuridine (Sigma). The resuspended cells were passed through a cell strainer ([…], BD Falcon) and seeded onto 100-mm plastic dishes for 2 h at 37° C. in a 5% CO2 to remove fibroblasts, the supernatant was then collected and plated onto 1% gelatin (Sigma)-coated dishes. 24 h after the seeding, the medium was changed to DMEM (Gibco) containing 2% FBS (Gibco), 1% insulin-transferrin-selenium (ITS; Gibco), 1% Penicillin-Streptomycin (Gibco). After 24 hours of low serum culture, remove the medium with DMEM (Gibco) containing 6% FBS (Gibco), 1% insulin-transferrin-selenium (ITS; Gibco), 1% Penicillin-Streptomycin (Gibco), different concentrations of compounds (the compounds were pre-diluted in the medium and the drug concentration was 10 uM, 3 uM, 1 uM, fully mixed). After 36 h add Edu substrate (Invitrogen) according to the manufacturer's guidelines, and then after 12 h cell can be used.
# • 2.1. Immobilization: Remove the medium and fix the cells with […] in 200 ul (whichever is covered) for 15 min and wash the cells twice with 500 ul of PBS for 5 min each time. • 2.2. Broken membrane: Add 200 ul of 0.3% Triton-X 100 (diluted in PBS) to each well, incubate for 10-15 min at room temperature (the time should not be too long), and wash the cells twice with 500 ul of PBS for 5 min each time. • 2.3. Blocking: Add 200 ul of 10% normal goat serum (diluted with 0.1% PBST) to each well, incubate for 1 h at room temperature, and wash twice with 500 ul of 0.1% PBST for 5 min each time. • 2.4. Primary antibody: dilute the primary antibody (abcam, ab8295) to blocking solution at a ratio of 1:200, add 100 ul per well, incubate for 1 h at room temperature (may be slightly longer than 2-3 h), wash the cells twice with 500 ul 0.1% PBST for 5 min each time. • 2.5. Secondary antibody: Dilute the fluorescently labeled secondary antibody (abcam, ab150117) into blocking solution at a ratio of 1:200, add 100 ul per well, incubate for 1 h at room temperature (the time should not be too long), wash the cells twice with 0.1% PBST for 5 min each time, pay attention to the whole process. Protected from light. • 2.6. Edu staining (Invitrogen C10338) • 2.6.1 Prepare Click-iT® reaction cocktail according to Table 3. It was important to add the ingredients in the order listed in the table; otherwise, the reaction would not proceed optimally. Use the Click-iT® reaction cocktail within 15 minutes of preparation.
# • 2.6.2 Add 0.1 mL of Click-iT® reaction cocktail to each well containing a coverslip. Rock the plate briefly to ensure that the reaction cocktail is distributed evenly over the coverslip. • 2.6.3 Incubate the plate for 30 minutes at room temperature, protected from light. • 2.6.4 Remove the reaction cocktail, then wash the cells twice with 0.1% PBST for 5 min each time. • 2.7. DAPI staining: DAPI stain was diluted to PBS at a ratio of 1:1000, 100 ul per well, incubated for 30 min at room temperature, and the cells were washed twice with PBS for 5 min each. 3. Data Analysis
# We used Molecular Devices' Image Xpress Micro Confocal for high-throughput photo and data analysis.
# human HIPK1 = target: T1, human HIPK1 (Homo sapiens, UniProt Q86Z02); experiment: HIPK1 enzyme assay (ADP-Glo); format: biochemical; details: ADP-Glo, ATP 5 μM; read-out: HIPK1 IC50
# T1 construct: Recombinant human HIPK1 (156-555); GST (N); purchased SignalChem H03-11G; host or cells: Sf9 insect cells
# Description: The ability of compounds to inhibit human HIPK1 kinase activities was determined using a commercially available ADP-Glo™ Kinase Assay kit (Promega, Cat #V9102) according to the manufacturer's protocol.
# Recombinant human HIPK1 (156-555) (expressed in Sf9 insect cells with an N-terminal GST tag) was purchased from SignalChem (Cat #H03-11G). Recombinant full length human MBP (expressed in E. Coli cells with an N-terminal GST tag) was purchased from SignalChem (Cat #M42-54G). This assay, run in a 384-well plate format, is a generic method for measuring kinase activities using an ADP-Glo Kinase Assay Kit. The basic assay procedure involves two steps: (1) Enzymatic step: inhibitors are incubated with the kinase and then ATP (included in the ADP-Glo Kinase Assay Kit) and the MBP protein are added to start the enzymatic reaction; (2) Detection step: after the kinase reaction, first ADP-Glo™ Reagent is added to terminate the kinase reaction and deplete the remaining ATP. Second, the Kinase Detection Reagent is added to simultaneously convert ADP to ATP and allow the newly synthesized ATP to be measured using a luciferase/luciferin reaction. The light generated is measured using a luminometer.
# Briefly, HIPK1 (4 nM) in the enzymatic buffer solutions (40 mM Tris, pH 7.5, 20 mM MgCl2, 0.1 mg/ml BSA, 50 μM DTT) were mixed with various concentrations of inhibitors (dissolved in 100% DMSO). These solutions were incubated for 30 minutes at 25° C., and subsequently a mixture of substrate peptide and ATP was added with the final peptide and ATP concentrations at 0.05 mg/ml and 5 μM, respectively. The final reaction mixture of enzyme-substrate-ATP-compound was incubated for 90 minutes at 25° C.
# Afterwards ADP-Glo™ Reagent was added and the mixture was incubated at 25° C. for 60 minutes. Then Kinase Detection Reagent was added, and the final mixture was incubated at 25° C. for 60 minutes. The luminescence signal of the final solution was measured on an Envision instrument (PerkinElmer). The percent (%) inhibition at each concentration of a compound is calculated relative to the luminescence signal in the Max and Min control wells contained within each assay plate. […] The concentrations and percent inhibition values for a test compound are plotted and the concentration of the compound required to achieve 50% inhibition (IC50) is determined with a four-parameter logistic dose response equation.
# T1 sequence (Q86Z02 156-555): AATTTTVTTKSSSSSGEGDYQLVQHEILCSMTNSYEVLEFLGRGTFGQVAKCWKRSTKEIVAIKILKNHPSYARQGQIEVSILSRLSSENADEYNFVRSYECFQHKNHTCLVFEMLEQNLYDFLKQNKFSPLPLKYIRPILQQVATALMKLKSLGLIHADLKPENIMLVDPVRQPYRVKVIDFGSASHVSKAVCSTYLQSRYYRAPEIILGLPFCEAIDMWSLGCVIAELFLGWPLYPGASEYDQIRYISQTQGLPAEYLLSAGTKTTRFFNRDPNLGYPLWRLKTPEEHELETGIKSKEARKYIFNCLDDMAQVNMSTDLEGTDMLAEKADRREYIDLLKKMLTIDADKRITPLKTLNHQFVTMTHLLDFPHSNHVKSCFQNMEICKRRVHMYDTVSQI
Structure (SMILES),IC50 (human HIPK1) [µM],Avg 1 uM (average myocyte proliferation) [1],Avg 3 uM (average myocyte proliferation) [1],Avg 10 uM (average myocyte proliferation) [1]
"O=C1NC(Nc2ccccc2)=N/C1=C\c1ccc2nccnc2c1 [Example 16, (Z)-2-(phenylamino)-5-(quinoxalin-6-ylmethylene)-3,5-dihydro-4H-imidazol-4-one]",1 to 10,* (<10% growth relative to blank myocyte growth without compound added.),* (<10% growth relative to blank myocyte growth without compound added.),
"Cn1cnc2ccc(/C=C3\N=C(Nc4ccccc4)NC3=O)cc21 [Example 46, (Z)-5-((1-methyl-1H-benzo[d]imidazol-6-yl)methylene)-2-(phenylamino)-3,5-dihydro-4H-imidazol-4-one]",0.1 to 1,*** (>50%),** (10%-50%),*** (>50%)
"O=C1NC(N(Cc2ccccc2)c2ccccc2)=N/C1=C\c1ccc2c(c1)OCO2 [Example 22, (Z)-5-(benzo[d][1,3]dioxol-5-ylmethylene)-2-(benzyl(phenyl)amino)-3,5-dihydro-4H-imidazol-4-one]",> 10,** (10%-50%),** (10%-50%),** (10%-50%)
"O=C1NC(NCCN2CCOCC2)=N/C1=C\c1ccc2ncsc2c1 [Example 29, (Z)-5-(benzo[d]thiazol-6-ylmethylene)-2-((2-morpholinoethyl)amino)-3,5-dihydro-4H-imidazol-4-one]",1 to 10,** (10%-50%),* (<10% growth relative to blank myocyte growth without compound added.),*** (>50%)
"CN(C1=N/C(=C\c2ccc3c(c2)OCO3)C(=O)N1)c1cccnc1 [Example 18, (Z)-5-(benzo[d][1,3]dioxol-5-ylmethylene)-2-(methyl(pyridin-3-yl)amino)-3,5-dihydro-4H-imidazol-4-one]",> 10,* (<10% growth relative to blank myocyte growth without compound added.),* (<10% growth relative to blank myocyte growth without compound added.),** (10%-50%)
"O=C1NC(NCc2ccccc2)=N/C1=C\c1ccc2ncsc2c1 [Example 31, (Z)-5-(benzo[d]thiazol-6-ylmethylene)-2-(benzylamino)-3,5-dihydro-4H-imidazol-4-one]",0.1 to 1,** (10%-50%),** (10%-50%),
"Cn1ncc2ccc(/C=C3\N=C(Nc4ccc5ncsc5c4)NC3=O)cc21 [Example 80, (Z)-2-(benzo[d]thiazol-6-ylamino)-5-((1-methyl-1H-indazol-6-yl)methylene)-3,5-dihydro-4H-imidazol-4-one]",> 10,* (<10% growth relative to blank myocyte growth without compound added.),* (<10% growth relative to blank myocyte growth without compound added.),
"O=C1NC(N(CCO)c2ccccc2)=N/C1=C\c1ccc2c(c1)OCO2 [Example 13, (Z)-5-(benzo[d][1,3]dioxol-5-ylmethylene)-2-((2-hydroxyethyl)(phenyl)amino)-3,5-dihydro-4H-imidazol-4-one]",1 to 10,* (<10% growth relative to blank myocyte growth without compound added.),** (10%-50%),

# Further lines, with some results ahead:
IC50 (human HIPK1) [µM],Structure (SMILES),Avg 1 uM (average myocyte proliferation) [1],Avg 3 uM (average myocyte proliferation) [1],Avg 10 uM (average myocyte proliferation) [1]
0.1 to 1,"O=C1NC(Nc2ccc3[nH]ccc3c2)=N/C1=C\c1ccc2ncsc2c1 [Example 69, (Z)-2-((1H-indol-5-yl)amino)-5-(benzo[d]thiazol-6-ylmethylene)-3,5-dihydro-4H-imidazol-4-one]",** (10%-50%),* (<10% growth relative to blank myocyte growth without compound added.),
> 10,"CN(CCN1CCOCC1)C1=N/C(=C\c2ccc3ncsc3c2)C(=O)N1 [Example 32, (Z)-5-(benzo[d]thiazol-6-ylmethylene)-2-(methyl(2-morpholinoethyl)amino)-3,5-dihydro-4H-imidazol-4-one]",* (<10% growth relative to blank myocyte growth without compound added.),* (<10% growth relative to blank myocyte growth without compound added.),
1 to 10,"COc1ccc(N(C)C2=N/C(=C\c3ccc4ncsc4c3)C(=O)N2)cc1 [Example 38, (Z)-5-(benzo[d]thiazol-6-ylmethylene)-2-((4-methoxyphenyl)(methyl)amino)-3,5-dihydro-4H-imidazol-4-one]",*** (>50%),** (10%-50%),*** (>50%)
> 10,"O=C1NC(Nc2ccc3nc(Nc4ccccc4)sc3c2)=N/C1=C\c1ccc2ncsc2c1 [Example 104, (Z)-5-(benzo[d]thiazol-6-ylmethylene)-2-((2-(phenylamino)benzo[d]thiazol-6-yl)amino)-3,5-dihydro-4H-imidazol-4-one]",* (<10% growth relative to blank myocyte growth without compound added.),** (10%-50%),
> 10,"CN(C1=N/C(=C\c2ccc3ncsc3c2)C(=O)N1)c1ccc2ncsc2c1 [Example 83, (Z)-2-(benzo[d]thiazol-6-yl(methyl)amino)-5-(benzo[d]thiazol-6-ylmethylene)-3,5-dihydro-4H-imidazol-4-one]",** (10%-50%),** (10%-50%),
